# System: RKO p21 uninduced (proliferating) colon adenocarcinoma cells
# Experiment: Alamar Blue cell viability assay, RKO p21 uninduced (proliferating)
# Assay type: cell-based
# Conditions: Homo sapiens, Table B3, anti-proliferative/cytotoxic activity, 72 hours, read-out: −log EC50 RKO p21 uninduced (proliferating) (converted)
# In short: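 Viability read by Alamar Blue fluorescence (ex 544, em 590 nm), normalised to untreated wells, after 72 h, 37° C, 5% CO2 compound exposure in triplicate. Cells were uninduced (no Ponasterone A), proliferating RKO colon carcinoma p27 or p21 subclones in DMEM with 10% FCS; values are −log EC50 (mol/l).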
row,Structure (SMILES),EC50
1,"CCN(CCO)CCN1C(=O)N2[C@H](c3cccc(O)c3)c3[nH]c4cc(F)c(Cl)cc4c3C[C@@]2(C)C1=O (racemic) [Example 349, (3aSR,10RS)-6-Chloro-2-{2-[ethyl-(2-hydroxy-ethyl)-amino]-ethyl}-7-fluoro-10-(3-hydroxy-phenyl)-3a-methyl-3a,4,9,10-tetrahydro-2,9,10a-triaza-cyclopenta[b]fluorene-1,3-dione]",39.8 to 251 nM
2,"CCN(CCOC)CCN1C(=O)N2[C@H](c3cccc(O)c3)c3[nH]c4cc(F)c(Cl)cc4c3C[C@@]2(C)C1=O (racemic) [Example 350, (3aSR,10RS)-6-Chloro-2-{2-[ethyl-(2-methoxy-ethyl)-amino]-ethyl}-7-fluoro-10-(3-hydroxy-phenyl)-3a-methyl-3a,4,9,10-tetrahydro-2,9,10a-triaza-cyclopenta[b]fluorene-1,3-dione]",39.8 to 251 nM
3,"CC(C)N(C)CCN1C(=O)N2[C@H](c3cccc(O)c3)c3[nH]c4cc(F)c(Cl)cc4c3C[C@@]2(C)C1=O (racemic) [Example 352, (3aSR,10RS)-6-Chloro-7-fluoro-10-(3-hydroxy-phenyl)-2-[2-(isopropyl-methyl-amino)-ethyl]-3a-methyl-3a,4,9,10-tetrahydro-2,9,10a-triaza-cyclopenta[b]fluorene-1,3-dione]",≤ 39.8 nM
4,"C[C@@]12Cc3c([nH]c4cc(F)c(Cl)cc34)[C@@H](c3cccc(O)c3)N1C(=O)N(CCN1CCOCC1)C2=O (racemic) [Example 353, (3aSR,10RS)-6-Chloro-7-fluoro-10-(3-hydroxy-phenyl)-3a-methyl-2-(2-morpholin-4-yl-ethyl)-3a,4,9,10-tetrahydro-2,9,10a-triaza-cyclopenta[b]fluorene-1,3-dione]",39.8 to 251 nM
5,"C[C@@]12Cc3c([nH]c4cc(F)c(Cl)cc34)[C@@H](c3cccc(O)c3)N1C(=O)N(CCN1CCCC1)C2=O (racemic) [Example 354, (3aSR,10RS)-6-Chloro-7-fluoro-10-(3-hydroxy-phenyl)-3a-methyl-2-(2-pyrrolidin-1-yl-ethyl)-3a,4,9,10-tetrahydro-2,9,10a-triaza-cyclopenta[b]fluorene-1,3-dione]",≤ 39.8 nM
6,"C[C@@]12Cc3c([nH]c4cc(F)c(Cl)cc34)[C@@H](c3cccc(O)c3)N1C(=O)N(CCN1CC=CC1)C2=O (racemic) [Example 355, (3aSR,10RS)-6-Chloro-2-[2-(2,5-dihydro-pyrrol-1-yl)-ethyl]-7-fluoro-10-(3-hydroxy-phenyl)-3a-methyl-3a,4,9,10-tetrahydro-2,9,10a-triaza-cyclopenta[b]fluorene-1,3-dione]",39.8 to 251 nM
7,"C[C@@]12Cc3c([nH]c4cc(F)c(Cl)cc34)[C@@H](c3cccc(O)c3)N1C(=O)N(CCN1CCCCC1)C2=O (racemic) [Example 356, (3aSR,10RS)-6-Chloro-7-fluoro-10-(3-hydroxy-phenyl)-3a-methyl-2-(2-piperidin-1-yl-ethyl)-3a,4,9,10-tetrahydro-2,9,10a-triaza-cyclopenta[b]fluorene-1,3-dione]",39.8 to 251 nM
8,"CC1CCN(CCN2C(=O)N3[C@H](c4cccc(O)c4)c4[nH]c5cc(F)c(Cl)cc5c4C[C@@]3(C)C2=O)CC1 (racemic) [Example 357, (3aSR,10RS)-6-Chloro-7-fluoro-10-(3-hydroxy-phenyl)-3a-methyl-2-[2-(4-methyl-piperidin-1-yl)-ethyl]-3a,4,9,10-tetrahydro-2,9,10a-triaza-cyclopenta[b]fluorene-1,3-dione]",39.8 to 251 nM
9,"CN1CCN(CCN2C(=O)N3[C@H](c4cccc(O)c4)c4[nH]c5cc(F)c(Cl)cc5c4C[C@@]3(C)C2=O)CC1 (racemic) [Example 359, (3aSR,10RS)-6-Chloro-7-fluoro-10-(3-hydroxy-phenyl)-3a-methyl-2-[2-(4-methyl-piperazin-1-yl)-ethyl]-3a,4,9,10-tetrahydro-2,9,10a--triaza-cyclopenta[b]fluorene-1,3-dione]",39.8 to 251 nM
10,"CC(=O)N1CCN(CCN2C(=O)N3[C@H](c4cccc(O)c4)c4[nH]c5cc(F)c(Cl)cc5c4C[C@@]3(C)C2=O)CC1 (racemic) [Example 360, (3aSR,10RS)-2-[2-(4-Acetyl-piperazin-1-yl)-ethyl]-6-chloro-7-fluoro-10-(3-hydroxy-phenyl)-3a-methyl-3a,4,9,10-tetrahydro-2,9,10a-triaza-cyclopenta[b]fluorene-1,3-dione]",39.8 to 251 nM
11,"C[C@@]12Cc3c([nH]c4cc(F)c(Cl)cc34)[C@@H](c3cccc(O)c3)N1C(=O)N(CCN1CCCCCC1)C2=O (racemic) [Example 361, (3aSR,10RS)-2-(2-Azepan-1-yl-ethyl)-6-chloro-7-fluoro-10-(3-hydroxy-phenyl)-3a-methyl-3a,4,9,10-tetrahydro-2,9,10a-triaza-cyclopenta[b]fluorene-1,3-dione]",39.8 to 251 nM
12,"C=CCN(C)CCN1C(=O)N2[C@H](c3cccc(O)c3)c3[nH]c4cc(F)c(Cl)cc4c3C[C@@]2(C)C1=O (racemic) [Example 362, (3aSR,10RS)-2-[2-(Allyl-methyl-amino)-ethyl]-6-chloro-7-fluoro-10-(3-hydroxy-phenyl)-3a-methyl-3a,4,9,10-tetrahydro-2,9,10a-triaza-cyclopenta[b]fluorene-1,3-dione]",39.8 to 251 nM
13,"C[C@@]12Cc3c([nH]c4ccc(Br)cc34)[C@@H](c3cccc(O)c3)N1C(=O)N(CCCNC1CCC1)C2=O (racemic) [Example 369, (3aSR,10RS)-6-Bromo-2-(3-cyclobutylamino-propyl)-10-(3-hydroxy-phenyl)-3a-methyl-3a,4,9,10-tetrahydro-2,9,10a-triaza-cyclopenta[b]fluorene-1,3-dione]",≤ 39.8 nM
14,"CN(CCO)CCCN1C(=O)N2[C@H](c3cccc(O)c3)c3[nH]c4ccc(Br)cc4c3C[C@@]2(C)C1=O (racemic) [Example 370, (3aSR,10RS)-6-Bromo-2-{3-[(2-hydroxy-ethyl)-methyl-amino]-propyl}-10-(3-hydroxy-phenyl)-3a-methyl-3a,4,9,10-tetrahydro-2,9,10a-triaza-cyclopenta[b]fluorene-1,3-dione]",≤ 39.8 nM
15,"C=CCN(C)CCCN1C(=O)N2[C@H](c3cccc(O)c3)c3[nH]c4ccc(Br)cc4c3C[C@@]2(C)C1=O (racemic) [Example 371, (3aSR,10RS)-2-[3-(Allyl-methyl-amino)-propyl]-6-bromo-10-(3-hydroxy-phenyl)-3a-methyl-3a,4,9,10-tetrahydro-2,9,10a-triaza-cyclopenta[b]fluorene-1,3-dione]",≤ 39.8 nM
16,"C[C@@]12Cc3c([nH]c4ccc(Br)cc34)[C@@H](c3cccc(O)c3)N1C(=O)N(CCCN1CCCCC1)C2=O (racemic) [Example 373, (3aSR,10RS)-6-Bromo-10-(3-hydroxy-phenyl)-3a-methyl-2-(3-piperidin-1-yl-propyl)-3a,4,9,10-tetrahydro-2,9,10a-triaza-cyclopenta[b]fluorene-1,3-dione]",≤ 39.8 nM
17,"CN1CCN(CCCN2C(=O)N3[C@H](c4cccc(O)c4)c4[nH]c5ccc(Br)cc5c4C[C@@]3(C)C2=O)CC1 (racemic) [Example 375, (3aSR,10RS)-6-Bromo-10-(3-hydroxy-phenyl)-3a-methyl-2-[3-(4-methyl-piperazin-1-yl)-propyl]-3a,4,9,10-tetrahydro-2,9,10a-triaza-cyclopenta[b]fluorene-1,3-dione]",≤ 39.8 nM
18,"C[C@@]12Cc3c([nH]c4ccc(Br)cc34)[C@@H](c3cccc(O)c3)N1C(=O)N(CCNCC1CC1)C2=O (racemic) [Example 376, (3aSR,10RS)-6-Bromo-2-[2-(cyclopropylmethyl-amino)-ethyl]-10-(3-hydroxy-phenyl)-3a-methyl-3a,4,9,10-tetrahydro-2,9,10a-triaza-cyclopenta[b]fluorene-1,3-dione]",≤ 39.8 nM
19,"COCCNCCN1C(=O)N2[C@H](c3cccc(O)c3)c3[nH]c4ccc(Br)cc4c3C[C@@]2(C)C1=O (racemic) [Example 377, (3aSR,10RS)-6-Bromo-10-(3-hydroxy-phenyl)-2-[2-(2-methoxy-ethylamino)-ethyl]-3a-methyl-3a,4,9,10-tetrahydro-2,9,10a-triaza-cyclopenta[b]fluorene-1,3-dione]",≤ 39.8 nM
20,"CC(C)(C)NCCN1C(=O)N2[C@H](c3cccc(O)c3)c3[nH]c4ccc(Br)cc4c3C[C@@]2(C)C1=O (racemic) [Example 378, (3aSR,10RS)-6-Bromo-2-(2-tert-butylamino-ethyl)-10-(3-hydroxy-phenyl)-3a-methyl-3a,4,9,10-tetrahydro-2,9,10a-triaza-cyclopenta[b]fluorene-1,3-dione]",≤ 39.8 nM
21,"CCN(CCO)CCN1C(=O)N2[C@H](c3cccc(O)c3)c3[nH]c4ccc(Br)cc4c3C[C@@]2(C)C1=O (racemic) [Example 379, (3aSR,10RS)-6-Bromo-2-{2-[ethyl-(2-hydroxy-ethyl)-amino]-ethyl}-10-(3-hydroxy-phenyl)-3a-methyl-3a,4,9,10-tetrahydro-2,9,10a-triaza-cyclopenta[b]fluorene-1,3-dione]",≤ 39.8 nM
22,"CCN(CCOC)CCN1C(=O)N2[C@H](c3cccc(O)c3)c3[nH]c4ccc(Br)cc4c3C[C@@]2(C)C1=O (racemic) [Example 380, (3aSR,10RS)-6-Bromo-2-{2-[ethyl-(2-methoxy-ethyl)-amino]-ethyl}-10-(3-hydroxy-phenyl)-3a-methyl-3a,4,9,10-tetrahydro-2,9,10a-triaza-cyclopenta[b]fluorene-1,3-dione]",39.8 to 251 nM
23,"C=CCN(C)CCN1C(=O)N2[C@H](c3cccc(O)c3)c3[nH]c4ccc(Br)cc4c3C[C@@]2(C)C1=O (racemic) [Example 381, (3aSR,10RS)-2-[2-(Allyl-methyl-amino)-ethyl]-6-bromo-10-(3-hydroxy-phenyl)-3a-methyl-3a,4,9,10-tetrahydro-2,9,10a-triaza-cyclopenta[b]fluorene-1,3-dione]",39.8 to 251 nM
24,"C#CCN(C)CCN1C(=O)N2[C@H](c3cccc(O)c3)c3[nH]c4ccc(Br)cc4c3C[C@@]2(C)C1=O (racemic) [Example 382, (3aSR,10RS)-6-Bromo-10-(3-hydroxy-phenyl)-3a-methyl-2-[2-(methyl-prop-2-ynyl-amino)-ethyl]-3a,4,9,10-tetrahydro-2,9,10a-triaza-cyclopenta[b]fluorene-1,3-dione]",39.8 to 251 nM
